Measurements from patent US9988406B2, “Forms of R)-3-(4-(2-(2-methyltetrazol-5-yl)pyridin-5-yl)-3-fluorophenyl)-5-hydroxymethyl oxazolidin-2-one dihydrogen phosphate” (Merck Sharp & Dohme Corp., priority 2009, dated 2018).

How the values were obtained:
[1] = hygroscopicity / water content of the free acid and salt forms; format: physicochemical
[2] = stability of the crystalline free acid and salt forms; format: physicochemical

Molecule	hygroscopicity (in words) [1]	water content ([1]; material as prepared)	stability of the crystalline form (in words) [2]
Cn1nnc(-c2ccc(-c3ccc(N4CC(COP(=O)([O-])O)OC4=O)cc3F)cn2)n1.[Na+] (stereo not shown) [mono-sodium salt]	very hygroscopic	over 10 % by weight	
(R)-3-(4-(2-(2-methyltetrazol-5-yl)pyridin-5-yl)-3-fluorophenyl)-5-hydroxymethyl oxazolidin-2-one dihydrogen phosphate [free acid]	non-hygroscopic		very stable at a relatively high temperature
